From patent US11351178B2, “Selective HDAC6 inhibitors” (ITALFARMACO S.P.A., priority 2017, dated 2022)

Tests used:
[1] = Stability to Phase I metabolism in human S9 liver fraction; format: in vitro ADME
Protocol: Test compounds were incubated in rat and human liver S9 fraction at 37° C. up to 90 minutes in order to evaluate their stability to Phase I metabolism by hepatic enzymes. […] The reaction was stopped placing samples on ice bath and adding acidified acetonitrile. After centrifugation (10 minutes at 14000 rpm) an aliquot of the supernatant was diluted water, filtered with 0.45 μm regenerated cellulose syringe filters and injected in HPLC-UV or in LC-MS/MS. The percentages of the amount remaining at the various incubation times with respect to the initial amount were calculated. The intrinsic clearance was also calculated.

[2] = Stability to Phase I metabolism in rat S9 liver fraction; format: in vitro ADME; conditions: after 90 min, 37° C.
Procedure, shortened: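 Compounds were incubated with rat or human liver S9 fraction at 37 °C for up to 90 min. Reactions were quenched on ice with acidified acetonitrile and analysed by HPLC-UV or LC-MS/MS. Percent remaining versus time zero and intrinsic clearance were calculated.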

Stability in rat plasma = format: in vitro ADME; conditions: after 4 hours, 37° C.
Procedure, shortened: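 Compounds incubated at 37° C in rat or human plasma at 50 μM (UV/HPLC) or 1 or 2 μM (LC-MS/MS) for 0–4 h. Reaction stopped with acidified acetonitrile on ice; percent remaining versus initial amount and plasma half-life calculated.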

[3] = Stability in human plasma; format: in vitro ADME; conditions: after 4 hours, 37° C.
Protocol: In order to evaluate the stability to circulating enzymes, test compounds were incubated in human and rat plasma at 37° C. in a thermostated oscillating bath. Each test compound was incubated at μM (50 μM when the samples were analysed by UV/HPLC, 1 or 2 μM when the samples were analysed by LC-MS/MS) concentration for 0, 15, 30 min and 1, 2 and 4 hours. The reaction was stopped placing tubes on ice bath and adding acidified acetonitrile. After centrifugation for 10 minutes at 14000 rpm, an aliquot of the supernatant was diluted with water, filtered with 0.45 μm syringe filters and injected in HPLC-UV or in LC-MS/MS. The percentages of amount remaining at the various times of incubation with respect to initial amount were calculated. The half-life in plasma was also calculated.

[4] = tested on: B 697 promyelocytic cell line; test: Cytotoxicity on 697 cell line (CellTiter 96); format: cell-based; conditions: 72 hours incubation, read-out: 697 TOXICITY
Procedure, shortened: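 Cells seeded (2×10^4/well for 697, 5×10^5/well for PBMCs); compounds added after 24 h at 1–10000 nM (697) or 1.5–10000 nM (PBMCs) and incubated 72 h. Viability read by CellTiter 96 Aqueous One tetrazolium assay of mitochondrial function.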

[5] = tested on: peripheral blood mononuclear cells (PBMCs); test: Cytotoxicity on PBMCs (CellTiter 96); format: cell-based; conditions: PBMC, 72 h; read-out: PBMC TOXICITY (72 h)
Protocol: Cytotoxic activity was evaluated on B 697 […] cell line for all synthesized compounds and on peripheral blood mononuclear cells (PBMCs) for compounds showing a good potency/selectivity profile.
Cells were seeded in plate (2×10^4 cells per well for 697, 5×10^5 cells per well for PBMCs). The test compounds (concentrations from 1.5 nM to 10000 nM for PBMCs and from 1 nM to 10000 nM for 697) were added after 24 hours and incubated 72 hours. The molecules cytotoxic activity was evaluated using CellTiter 96© Aqueous One Solution Cell Proliferation Assay (Promega), which measures the mitochondria function, following the manufacturer's instructions.

recombinant human HDAC6 = target: T1, recombinant human HDAC6 (Homo sapiens, UniProt Q9UBN7); test: Enzymatic screening on recombinant human HDAC6; format: biochemical; conditions: Table 2; read-out: HDAC6 IC50
T1 sequence (Q9UBN7 1-1215): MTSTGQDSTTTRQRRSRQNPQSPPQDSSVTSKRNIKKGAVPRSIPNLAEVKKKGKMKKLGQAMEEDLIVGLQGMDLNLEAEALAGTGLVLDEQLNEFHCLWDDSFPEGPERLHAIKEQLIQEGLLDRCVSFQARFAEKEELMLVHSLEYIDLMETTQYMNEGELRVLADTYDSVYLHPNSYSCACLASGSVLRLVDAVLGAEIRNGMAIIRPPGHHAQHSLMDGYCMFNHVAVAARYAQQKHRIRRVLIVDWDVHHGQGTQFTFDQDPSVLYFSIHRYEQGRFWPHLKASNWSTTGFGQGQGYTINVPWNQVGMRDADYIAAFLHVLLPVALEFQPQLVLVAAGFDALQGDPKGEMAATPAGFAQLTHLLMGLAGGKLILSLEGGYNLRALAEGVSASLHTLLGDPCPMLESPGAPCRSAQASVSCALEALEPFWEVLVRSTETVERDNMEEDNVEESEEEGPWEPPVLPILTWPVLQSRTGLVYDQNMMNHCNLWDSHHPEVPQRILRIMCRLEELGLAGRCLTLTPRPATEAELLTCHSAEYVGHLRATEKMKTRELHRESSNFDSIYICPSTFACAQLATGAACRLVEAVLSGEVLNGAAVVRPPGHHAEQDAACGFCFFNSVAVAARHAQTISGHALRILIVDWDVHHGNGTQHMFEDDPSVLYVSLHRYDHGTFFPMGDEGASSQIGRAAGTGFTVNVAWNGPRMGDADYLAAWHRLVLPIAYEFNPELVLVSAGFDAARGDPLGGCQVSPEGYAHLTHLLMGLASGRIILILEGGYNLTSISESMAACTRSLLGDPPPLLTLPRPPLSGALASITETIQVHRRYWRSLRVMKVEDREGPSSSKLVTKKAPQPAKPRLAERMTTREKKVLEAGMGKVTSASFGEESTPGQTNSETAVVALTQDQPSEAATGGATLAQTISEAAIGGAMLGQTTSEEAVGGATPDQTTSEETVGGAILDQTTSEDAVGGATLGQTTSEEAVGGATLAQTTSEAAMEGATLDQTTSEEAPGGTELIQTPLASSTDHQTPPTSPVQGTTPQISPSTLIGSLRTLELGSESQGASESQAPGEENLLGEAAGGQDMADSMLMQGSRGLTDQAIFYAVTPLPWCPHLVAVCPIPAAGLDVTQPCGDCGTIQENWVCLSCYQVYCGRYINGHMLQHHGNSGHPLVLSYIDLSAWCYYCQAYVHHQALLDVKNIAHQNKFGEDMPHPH
Procedure, shortened: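 Deacetylase activity of recombinant human isoforms is measured with FLUOR DE LYS, FLUOR DE LYS-Green or trifluoroacetyl-L-lysine substrates, supplied at 2× in 25 mM Tris-HCl, pH 8, 130 mM NaCl, 0.05% Tween-20, 10% glycerol. Both the enzyme-compound preincubation, of isoform-specific length, and the substrate reaction run at 30 °C.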

[6] = human liver S9 fraction, after 90 min, 37° C.

Row | Compound | residual percentage in human S9 fraction [1, 6] [%] | residual percentage in rat S9 fraction [2] [%] | residual percentage in rat plasma (Stability in rat plasma) [%] | residual percentage in human plasma [3] [%] | IC50 [4] [nM] | IC50 [5] [nM] | residual percentage in human S9 fraction ([1]; human, 90 min, pH 7.4) [%] | IC50 (recombinant human HDAC6) [nM]
1 | O=C(NO)c1cc(F)c(Cn2nnc(-c3ncccn3)n2)c(F)c1 [comp. 7] | 89 | 96 | 77 | 93 | 4190 | 10000 | – | –
2 | Cn1c(Sc2c(F)cc(C(=O)NO)cc2F)nnc1-c1ccc(CN2CCOCC2)o1 [comp. 204, 3,5-difluoro-4-[[4-methyl-5-[5-(morpholinomethyl)-2-furyl]-1,2,4-triazol-3-yl]sulfanyl]benzenecarbohydroxamic acid] | – | 72 | 89 | 79 | 15400 | – | 84 | 7
3 | CN1CCN(Cc2ccc(-c3nnc(Sc4c(F)cc(C(=O)NO)cc4F)n3C)o2)CC1 [comp. 205, 3,5-difluoro-4-[[4-methyl-5-[5-[(4-methylpiperazin-1-yl)methyl]-2-furyl]-1,2,4-triazol-3-yl]sulfanyl]benzenecarbohydroxamic acid] | – | 71 | 89 | 80 | 15400 | – | 95 | 5
4 | CCc1oc(-c2nnc(Sc3c(F)cc(C(=O)NO)cc3F)n2C)cc1CN1CCCC1 [comp. 208, 4-[[5-[5-ethyl-4-(pyrrolidin-1-ylmethyl)-2-furyl]-4-methyl-1,2,4-triazol-3-yl]sulfanyl]-3,5-difluoro-benzenecarbohydroxamic acid] | – | 81 | 81 | 87 | 15400 | – | 81 | 4
5 | CN1CCN(Cc2ccc(-c3nnc(Sc4ccc(C(=O)NO)cc4)n3C)o2)CC1 [comp. 209, 4-[[4-methyl-5-[5-[(4-methylpiperazin-1-yl)methyl]-2-furyl]-1,2,4-triazol-3-yl]sulfanyl]benzenecarbohydroxamic acid] | – | 84 | 69 | 77 | 15400 | – | 100 | 11
6 | Cn1c(Sc2c(F)cc(C(=O)NO)cc2F)nnc1-c1ccc(CN2CCCCC2)o1 [comp. 212, 3,5-difluoro-4-[[4-methyl-5-[5-(1-piperidylmethyl)-2-furyl]-1,2,4-triazol-3-yl]sulfanyl]benzenecarbohydroxamic acid] | – | 60 | 81 | 83 | 15400 | – | 75 | 6
7 | CCN(CC)Cc1cc(-c2nnc(Sc3c(F)cc(C(=O)NO)cc3F)n2C)c(C)o1 [comp. 213, 4-[[5-[5-(diethylaminomethyl)-2-methyl-3-furyl]-4-methyl-1,2,4-triazol-3-yl]sulfanyl]-3,5-difluoro-benzenecarbohydroxamic acid] | – | 58 | 80 | 97 | 15400 | – | 63 | 13
8 | O=C(NO)c1ccc(Cn2nnc(-c3ccccc3)n2)cc1 [comp. 214, 4-[(5-phenyltetrazol-2-yl)methyl]benzenecarbohydroxamic acid] | – | 9 | 60 | 92 | 409 | – | 73 | 3
9 | O=C(NO)c1ccc(Cn2nnnc2-c2ccccc2)cc1 [comp. 215, 4-[(5-phenyltetrazol-1-yl)methyl]benzenecarbohydroxamic acid] | – | 65 | 57 | 90 | 340 | – | 82 | –
10 | O=C(NO)c1ccc(Cc2nnc(-c3ccccc3)[nH]2)cc1 [comp. 216, 4-[(5-phenyl-4H-1,2,4-triazol-3-yl)methyl]benzenecarbohydroxamic acid] | – | 62 | 89 | 91 | 288 | – | 84 | –
11 | O=C(NO)c1cc(F)c(Cc2noc(-c3cncc(N4CC5(COC5)C4)c3)n2)c(F)c1 [compound 201, 3,5-difluoro-4-[[5-[5-(2-oxa-6-azaspiro[3.3]heptan-6-yl)-3-pyridyl]-1,2,4-oxadiazol-3-yl]methyl]benzenecarbohydroxamic acid] | 75 | 34 | 95 | 88 | – | – | – | 16
